Measured values as given in patent US9725459B2, “3-oxo-tetrahydro-furo[3,2-B]pyrrol-4(5H)-yl) derivatives I” (GRÜNENTHAL GMBH, priority 2014, dated 2017).
pKi: −log10 of the molar value.

Columns and labels:
Type in all cases: biochemical
human cathepsin L (CatL) = human cathepsin L (CatL) (Homo sapiens (Human), UniProt P07711); test: CatL functional enzyme assay; settings: read-out: hCatL, inhibition [%] at 31.6 μM
human cathepsin S (CatS) = human cathepsin S (CatS) (Homo sapiens (Human), UniProt P25774); test: CatS functional enzyme assay; settings: for inhibition at 10 µM: read-out: hCatS, inhibition [%] at 10 μM; for Selectivity Ki(hCatS)/Ki(hCatK): ratio Ki(hCatS)/Ki(hCatK); for pKi: recombinant human CatS, substrate Z-VVR-AMC 5 μM, pH 6.5, Ki by Cheng Prusoff equation, read-out: hCatS, Ki
Method in brief: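 Recombinant human enzymes were incubated 10 min at RT with AMC substrate: CatS 0.0007 mU/well with Z-VVR-AMC 5 µM; CatK 0.00175 mU/well with Z-FR-AMC 40 µM; CatL 0.000874 mU/well with Z-VVR-AMC 40 µM. Fluorescence gave IC50, converted to Ki by Cheng-Prusoff.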

human cathepsin K (CatK) = human cathepsin K (CatK) (Homo sapiens (Human), UniProt P43235); test: CatK functional enzyme assay; settings: for inhibition at 10 µM: read-out: hCatK, inhibition [%] at 10 μM; for pKi: recombinant human CatK, substrate Z-FR-AMC 40 μM, pH 5.5, Ki by Cheng Prusoff equation, read-out: hCatK, Ki
Method in brief: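 Recombinant human enzymes in 50 mM NaOAc, 10 mM EDTA, 1 mM DTT, 0.01% Triton X-100, pH 5.5, 10 min at RT. CatK: 0.00175 mU/well with 40 μM Z-FR-AMC; CatL: 0.000874 mU/well with 40 μM Z-VVR-AMC. AMC fluorescence read; IC50 converted to Ki via Cheng–Prusoff.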

human cathepsin S (CatS), sequence (P25774 115-331): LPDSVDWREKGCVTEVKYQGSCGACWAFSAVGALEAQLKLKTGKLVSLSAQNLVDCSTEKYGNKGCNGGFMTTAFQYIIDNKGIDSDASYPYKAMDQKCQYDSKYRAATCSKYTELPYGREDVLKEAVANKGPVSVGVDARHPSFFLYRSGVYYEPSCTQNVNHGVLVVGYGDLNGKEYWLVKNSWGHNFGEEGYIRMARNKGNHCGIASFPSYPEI
human cathepsin L (CatL), sequence (P07711 114-333): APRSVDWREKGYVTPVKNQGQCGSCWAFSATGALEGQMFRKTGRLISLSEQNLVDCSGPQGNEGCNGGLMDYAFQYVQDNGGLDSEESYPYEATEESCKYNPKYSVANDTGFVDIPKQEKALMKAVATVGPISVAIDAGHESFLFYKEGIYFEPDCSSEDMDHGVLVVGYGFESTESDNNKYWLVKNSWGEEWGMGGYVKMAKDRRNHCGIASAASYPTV
human cathepsin K (CatK), sequence (P43235 115-329): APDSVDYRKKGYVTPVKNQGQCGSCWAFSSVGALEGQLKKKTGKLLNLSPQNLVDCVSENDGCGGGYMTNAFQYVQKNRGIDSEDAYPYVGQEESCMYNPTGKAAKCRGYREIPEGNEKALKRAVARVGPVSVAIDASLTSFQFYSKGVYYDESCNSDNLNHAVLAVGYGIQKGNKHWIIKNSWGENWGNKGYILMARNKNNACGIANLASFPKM

For `Cc1nc(-c2cccnc2)sc1C(=O)N[C@H](C(=O)N1C[C@H](Cl)[C@H]2OCC(=O)[C@H]21)C1CCCCC1` [Example 14, N-((S)-2-((3aS,6S,6aS)-6-chloro-3-oxotetrahydro-2H-furo[3,2-b]pyrrol-4(5H)-yl)-1-cyclohexyl-2-oxoethyl)-4-methyl-2-(pyridin-3-yl)thiazole-5-carboxamide], the inhibition at 31.6 µM (human cathepsin L (CatL)) was 21%, the inhibition at 10 µM (human cathepsin S (CatS)) was 70% and the inhibition at 10 µM (human cathepsin K (CatK)) was 88%.

With `O=C(N[C@H](C(=O)N1C[C@H](Cl)[C@H]2OCC(=O)[C@H]21)C1CCCCC1)c1ccc(-c2cnccn2)o1` [Example 25, N-((S)-2-((3aS,6S,6aS)-6-chloro-3-oxotetrahydro-2H-furo[3,2-b]pyrrol-4(5H)-yl)-1-cyclohexyl-2-oxoethyl)-5-(pyrazin-2-yl)furan-2-carboxamide] the inhibition at 31.6 µM (human cathepsin L (CatL)) was 20%, the “Selectivity Ki(hCatS)/Ki(hCatK)” value (human cathepsin S (CatS)) was 5.4 and the pKi (human cathepsin S (CatS)) was 6.08. It also gave a pKi (human cathepsin K (CatK)) of 6.82.

With `CCc1cc(-c2ccc(C(=O)N[C@H](C(=O)N3C[C@H](Cl)[C@H]4OCC(=O)[C@H]43)C3CCCCC3)s2)cnn1` [Example 85, N-((S)-2-((3aS,6S,6aS)-6-chloro-3-oxotetrahydro-2H-furo[3,2-b]pyrrol-4(5H)-yl)-1-cyclohexyl-2-oxoethyl)-5-(6-ethylpyridazin-4-yl)thiophene-2-carboxamide] the inhibition at 31.6 µM (human cathepsin L (CatL)) was 14%, the “Selectivity Ki(hCatS)/Ki(hCatK)” value (human cathepsin S (CatS)) was 1.1 and the pKi (human cathepsin S (CatS)) was 8.22. It also gave a pKi (human cathepsin K (CatK)) of 8.30.

For `O=C(N[C@H](C(=O)N1C[C@H](Cl)[C@H]2OCC(=O)[C@H]21)C1CCCCC1)c1ncc(-c2ccnnc2)s1` [Example 18, N-((S)-2-((3aS,6S,6aS)-6-chloro-3-oxotetrahydro-2H-furo[3,2-b]pyrrol-4(5H)-yl)-1-cyclohexyl-2-oxoethyl)-5-(pyridazin-4-yl)thiazole-2-carboxamide], the inhibition at 31.6 µM (human cathepsin L (CatL)) was 15%, the “Selectivity Ki(hCatS)/Ki(hCatK)” value (human cathepsin S (CatS)) was 1.2 and the pKi (human cathepsin S (CatS)) was 7.43. For the same molecule, the pKi (human cathepsin K (CatK)) was 7.51.

For `O=C(N[C@H](C(=O)N1C[C@H](Cl)[C@H]2OCC(=O)[C@H]21)C1CCCCC1)c1ccc(-c2ccncc2)o1` [Example 12, N-((S)-2-((3aS,6S,6aS)-6-chloro-3-oxotetrahydro-2H-furo[3,2-b]pyrrol-4(5H)-yl)-1-cyclohexyl-2-oxoethyl)-5-(pyridin-4-yl)furan-2-carboxamide], the inhibition at 31.6 µM (human cathepsin L (CatL)) was 18%, the “Selectivity Ki(hCatS)/Ki(hCatK)” value (human cathepsin S (CatS)) was 10.4 and the pKi (human cathepsin S (CatS)) was 6.28. The pKi (human cathepsin K (CatK)) was 7.30.

With `O=C(N[C@H](C(=O)N1C[C@H](Cl)[C@H]2OCC(=O)[C@H]21)C1CCCCC1)c1ccc(-c2ncccn2)s1` [Example 9, N-((S)-2-((3aS,6S,6aS)-6-chloro-3-oxotetrahydro-2H-furo[3,2-b]pyrrol-4(5H)-yl)-1-cyclohexyl-2-oxoethyl)-5-(pyrimidin-2-yl)thiophene-2-carboxamide] the inhibition at 31.6 µM (human cathepsin L (CatL)) was 4%, the “Selectivity Ki(hCatS)/Ki(hCatK)” value (human cathepsin S (CatS)) was 81.7 and the pKi (human cathepsin S (CatS)) was 5.83. The pKi (human cathepsin K (CatK)) was 7.74.

`O=C(N[C@H](C(=O)N1C[C@H](Cl)[C@H]2OCC(=O)[C@H]21)C1CCCCC1)c1ncc(-c2cncnc2)s1` [Example 24, N-((S)-2-((3aS,6S,6aS)-6-chloro-3-oxotetrahydro-2H-furo[3,2-b]pyrrol-4(5H)-yl)-1-cyclohexyl-2-oxoethyl)-5-(pyrimidin-5-yl)thiazole-2-carboxamide] was tested, and the inhibition at 31.6 µM (human cathepsin L (CatL)) was 10%, the “Selectivity Ki(hCatS)/Ki(hCatK)” value (human cathepsin S (CatS)) was 2.8 and the pKi (human cathepsin S (CatS)) was 7.21. It also gave a pKi (human cathepsin K (CatK)) of 7.66.

`Cc1ccc(-c2ccc(C(=O)N[C@H](C(=O)N3C[C@H](Cl)[C@H]4OCC(=O)[C@H]43)C3CCCCC3)s2)nn1` [Example 35, N-((S)-2-((3aS,6S,6aS)-6-chloro-3-oxotetrahydro-2H-furo[3,2-b]pyrrol-4(5H)-yl)-1-cyclohexyl-2-oxoethyl)-5-(6-methylpyridazin-3-yl)thiophene-2-carboxamide] was tested, and the inhibition at 31.6 µM (human cathepsin L (CatL)) was 23%, the “Selectivity Ki(hCatS)/Ki(hCatK)” value (human cathepsin S (CatS)) was 10.7 and the pKi (human cathepsin S (CatS)) was 6.76. It also gave a pKi (human cathepsin K (CatK)) of 7.80.

`O=C(N[C@H](C(=O)N1C[C@H](Cl)[C@H]2OCC(=O)[C@H]21)C1CCCCC1)c1ncc(-c2cccnc2)s1` [Example 45, N-((S)-2-((3aS,6S,6aS)-6-chloro-3-oxotetrahydro-2H-furo[3,2-b]pyrrol-4(5H)-yl)-1-cyclohexyl-2-oxoethyl)-5-(pyridin-3-yl)thiazole-2-carboxamide] was tested, and the inhibition at 31.6 µM (human cathepsin L (CatL)) was 26%, the “Selectivity Ki(hCatS)/Ki(hCatK)” value (human cathepsin S (CatS)) was 32.8 and the pKi (human cathepsin S (CatS)) was 6.58. The pKi (human cathepsin K (CatK)) was 8.10.

For `O=C(N[C@H](C(=O)N1C[C@H](Cl)[C@H]2OCC(=O)[C@H]21)C1CCCCC1)c1ccc(-c2cnc(C(F)(F)F)nc2)s1` [Example 61, N-((S)-2-((3aS,6S,6aS)-6-chloro-3-oxotetrahydro-2H-furo[3,2-b]pyrrol-4(5H)-yl)-1-cyclohexyl-2-oxoethyl)-5-(2-(trifluoromethyl)pyrimidin-5-yl)thiophene-2-carboxamide], the inhibition at 31.6 µM (human cathepsin L (CatL)) was 0%, the “Selectivity Ki(hCatS)/Ki(hCatK)” value (human cathepsin S (CatS)) was 4.0 and the pKi (human cathepsin S (CatS)) was 6.52. The pKi (human cathepsin K (CatK)) was 7.12.

For `Cc1cc(-c2cnc(C(=O)N[C@H](C(=O)N3C[C@H](Cl)[C@H]4OCC(=O)[C@H]43)C3CCCCC3)s2)ccn1` [Example 51, N-((S)-2-((3aS,6S,6aS)-6-chloro-3-oxotetrahydro-2H-furo[3,2-b]pyrrol-4(5H)-yl)-1-cyclohexyl-2-oxoethyl)-5-(2-methylpyridin-4-yl)thiazole-2-carboxamide], the inhibition at 31.6 µM (human cathepsin L (CatL)) was 6%, the “Selectivity Ki(hCatS)/Ki(hCatK)” value (human cathepsin S (CatS)) was 24.7 and the pKi (human cathepsin S (CatS)) was 6.76. For the same molecule, the pKi (human cathepsin K (CatK)) was 8.15.

`O=C(N[C@H](C(=O)N1C[C@H](Cl)[C@H]2OCC(=O)[C@H]21)C1CCCCC1)c1ccc(-c2cncnc2)o1` [Example 11, N-((S)-2-((3aS,6S,6aS)-6-chloro-3-oxotetrahydro-2H-furo[3,2-b]pyrrol-4(5H)-yl)-1-cyclohexyl-2-oxoethyl)-5-(pyrimidin-5-yl)furan-2-carboxamide] was tested, and the inhibition at 31.6 µM (human cathepsin L (CatL)) was 14%, the “Selectivity Ki(hCatS)/Ki(hCatK)” value (human cathepsin S (CatS)) was 1.1 and the pKi (human cathepsin S (CatS)) was 7.00. It also gave a pKi (human cathepsin K (CatK)) of 7.06.

`O=C(N[C@H](C(=O)N1C[C@H](Cl)[C@H]2OCC(=O)[C@H]21)C1CCCCC1)c1sc(-c2cccnc2)nc1C(F)(F)F` [Example 23, N-((S)-2-((3aS,6S,6aS)-6-chloro-3-oxotetrahydro-2H-furo[3,2-b]pyrrol-4(5H)-yl)-1-cyclohexyl-2-oxoethyl)-2-(pyridin-3-yl)-4-(trifluoromethyl)thiazole-5-carboxamide] gave an inhibition at 31.6 µM (human cathepsin L (CatL)) of 0%, an inhibition at 10 µM (human cathepsin S (CatS)) of 60% and an inhibition at 10 µM (human cathepsin K (CatK)) of 52%.

For `Cc1cc(-c2ccc(C(=O)N[C@H](C(=O)N3C[C@H](Cl)[C@H]4OCC(=O)[C@H]43)C3CCCCC3)s2)c(C)cn1` [Example 88, N-((S)-2-((3aS,6S,6aS)-6-chloro-3-oxotetrahydro-2H-furo[3,2-b]pyrrol-4(5H)-yl)-1-cyclohexyl-2-oxoethyl)-5-(2,5-dimethylpyridin-4-yl)thiophene-2-carboxamide], the inhibition at 31.6 µM (human cathepsin L (CatL)) was 0%, the “Selectivity Ki(hCatS)/Ki(hCatK)” value (human cathepsin S (CatS)) was 18.6 and the pKi (human cathepsin S (CatS)) was 6.47. It also gave a pKi (human cathepsin K (CatK)) of 7.74.

With `O=C(N[C@H](C(=O)N1C[C@H](Cl)[C@H]2OCC(=O)[C@H]21)C1CCCCC1)c1ccc(-c2cncc(F)c2)s1` [Example 16, N-((S)-2-((3aS,6S,6aS)-6-chloro-3-oxotetrahydro-2H-furo[3,2-b]pyrrol-4(5H)-yl)-1-cyclohexyl-2-oxoethyl)-5-(5-fluoropyridin-3-yl)thiophene-2-carboxamide] the inhibition at 31.6 µM (human cathepsin L (CatL)) was 15%, the “Selectivity Ki(hCatS)/Ki(hCatK)” value (human cathepsin S (CatS)) was 19.9 and the pKi (human cathepsin S (CatS)) was 6.59. The pKi (human cathepsin K (CatK)) was 7.89.

For `O=C(N[C@H](C(=O)N1C[C@H](Cl)[C@H]2OCC(=O)[C@H]21)C1CCCCC1)c1ncc(-c2ccc(Cl)nc2)s1` [Example 52, N-((S)-2-((3aS,6S,6aS)-6-chloro-3-oxotetrahydro-2H-furo[3,2-b]pyrrol-4(5H)-yl)-1-cyclohexyl-2-oxoethyl)-5-(6-chloropyridin-3-yl)thiazole-2-carboxamide], the inhibition at 31.6 µM (human cathepsin L (CatL)) was 7%, the “Selectivity Ki(hCatS)/Ki(hCatK)” value (human cathepsin S (CatS)) was 14.5 and the pKi (human cathepsin S (CatS)) was 6.69. It also gave a pKi (human cathepsin K (CatK)) of 7.85.

In the case of `O=C(N[C@H](C(=O)N1C[C@H](Cl)[C@H]2OCC(=O)[C@H]21)C1CCCCC1)c1ccc(-c2ccc[n+]([O-])n2)s1` [Example 79, 3-(5-(((S)-2-((3aS,6S,6aS)-6-chloro-3-oxotetrahydro-2H-furo[3,2-b]pyrrol-4(5H)-yl)-1-cyclohexyl-2-oxoethyl)carbamoyl)thiophen-2-yl)pyridazine 1-oxide], the inhibition at 31.6 µM (human cathepsin L (CatL)) was 25%, the “Selectivity Ki(hCatS)/Ki(hCatK)” value (human cathepsin S (CatS)) was 2.7 and the pKi (human cathepsin S (CatS)) was 7.25. For the same molecule, the pKi (human cathepsin K (CatK)) was 7.68.

`Cc1ncc(-c2cnc(C(=O)N[C@H](C(=O)N3C[C@H](Cl)[C@H]4OCC(=O)[C@H]43)C3CCCCC3)s2)cn1` [Example 41, N-((S)-2-((3aS,6S,6aS)-6-chloro-3-oxotetrahydro-2H-furo[3,2-b]pyrrol-4(5H)-yl)-1-cyclohexyl-2-oxoethyl)-5-(2-methylpyrimidin-5-yl)thiazole-2-carboxamide] was tested, and the inhibition at 31.6 µM (human cathepsin L (CatL)) was 25%, the pKi (human cathepsin S (CatS)) was 6.84 and the pKi (human cathepsin K (CatK)) was 7.59.
